Experimental findings from US9561228B2 (Celgene Avilomics Research, Inc., priority 2013, dated 2017) are described below.

Experiment [1] deals with T1, MEK1 activated ERK1 (Homo sapiens, UniProt P27361).
T1 construct: purchased Millipore (Billerica, Mass.) 14-439-K
Put plainly: Omnia continuous-read kinase assay for potency against MEK1 activated ERK1. Type of experiment: biochemical. The gist of the method: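 Apparent IC50 came from initial reaction slopes (RFU vs time) plotted against log inhibitor with a variable-slope fit. Reactions were started with ERK1 (4 nM final) added to 50 μM ATP, roughly at its appKM, and 10 μM Sox-conjugated ST17 peptide in 20 mM Tris pH 7.5, 5 mM MgCl2. Fluorescence was monitored every 71 seconds.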

Experiment [2] addresses T2, Erk1 (Homo sapiens, UniProt P27361).
T2 construct: purchased Millipore 14-439
Put plainly: Protein Mass Modification Assay (intact protein MALDI, 60 min, 10-fold excess of compound). The experiment is classed as binding. The gist of the method:
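Human Erk1 was incubated 60 min at room temperature with a 10-fold molar excess of compound, then analysed as intact protein by MALDI with sinapinic acid matrix. The centroid mass shift versus untreated protein was divided by compound molecular weight to give percent modified protein.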

The test system of experiment [3] is ERK1/2 phosphorylation of p90RSK in HCT116 cells. Put plainly: Detection of total and phospho-RSK by MSD ELISA (HCT116). The experiment is classed as cell-based. The note with it: Homo sapiens, HCT-116, read-out: ERK1/ERK2 PRSK HCT116 EC50. The gist of the method: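 HCT116 cells treated with compound in RPMI/10% FBS for 2 h at 37° C, then lysed. Phospho-RSK (Ser380) and total RSK in lysates measured by MSD sandwich electrochemiluminescence ELISA as a readout of ERK1/2 activity.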

The mark [4] stands for this setting: MEK1 activated ERK1, ATP at KM, read-out: ERK1 Omnia WT ATP KM IC50.

Where two headings read alike, the source gives them in different places.

T1 sequence (P27361 whole entry): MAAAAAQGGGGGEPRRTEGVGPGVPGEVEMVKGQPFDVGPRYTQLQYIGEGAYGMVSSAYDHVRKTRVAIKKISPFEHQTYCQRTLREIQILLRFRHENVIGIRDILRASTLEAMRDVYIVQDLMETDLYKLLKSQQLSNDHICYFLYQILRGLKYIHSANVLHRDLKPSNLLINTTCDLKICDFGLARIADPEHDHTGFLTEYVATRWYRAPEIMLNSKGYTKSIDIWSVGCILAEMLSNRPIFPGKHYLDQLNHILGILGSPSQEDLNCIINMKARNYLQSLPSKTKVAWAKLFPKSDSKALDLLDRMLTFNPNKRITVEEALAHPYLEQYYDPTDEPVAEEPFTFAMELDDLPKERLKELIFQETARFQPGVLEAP
T2 sequence (P27361 whole entry): as above

For orientation: IC50 means the concentration that gives 50% inhibition. Take `C=CC(=O)Nc1cc(C)ccc1Nc1nc(Nc2ncc(F)c(OC)n2)ncc1C(F)(F)F` [Compound I-356, N-(2-((2-((5-fluoro-4-methoxypyrimidin-2-yl)amino)-5-(trifluoromethyl)pyrimidin-4-yl)amino)-5-methylphenyl)acrylamide]: the IC50 in experiment [1] (ATP at KM, WT) was in the range of 501 to 999 nM. For the same compound, the “ERK1 Mass Mod (%)” value in experiment [2] is listed as “E (a mass modification of ≧70%)”. In experiment [3], the EC50 was 501 to 999 nM.
With `C=CC(=O)Nc1cc(CN2CCOCC2)ccc1Nc1nc(Nc2cc(OC)ncc2C)ncc1C(F)(F)F` [Compound I-399, N-(2-((2-((2-methoxy-5-methylpyridin-4-yl)amino)-5-(trifluoromethyl)pyrimidin-4-yl)amino)-5-(morpholinomethyl)phenyl)acrylamide], the IC50 in experiment [1] (ATP at KM, WT) lay within 101 to 500 nM. For the same compound, in experiment [2], the “ERK1 Mass Mod (%)” value is listed as “E (a mass modification of ≧70%)”. Also, the EC50 in experiment [3] fell in the range of 101 to 500 nM.
Regarding `C=CC(=O)Nc1cc(C)ccc1Nc1nc(Nc2cc(N[C@H]3CC[C@](C)(O)CC3)nc(OC)c2)ncc1C(F)(F)F` [Compound I-327, N-(2-((2-((2-((trans-4-hydroxy-4-methylcyclohexyl)amino)-6-methoxypyridin-4-yl)amino)-5-(trifluoromethyl)pyrimidin-4-yl)amino)-5-methylphenyl)acrylamide], the IC50 in experiment [1] (setting [4]) was 101 to 500 nM. The “ERK1 Mass Mod (%)” value in experiment [2] was “E (a mass modification of ≧70%)”. For the same compound, in experiment [3], the EC50 was < 100 nM.
As for `C=CC(=O)Nc1cc(CN2CCN(C(=O)c3cnccn3)CC2)ccc1Nc1nc(Nc2nc(OC)ncc2C)ncc1C(F)(F)F` [Compound I-393, N-(2-((2-((2-methoxy-5-methylpyrimidin-4-yl)amino)-5-(trifluoromethyl)pyrimidin-4-yl)amino)-5-((4-(pyrazine-2-carbonyl)piperazin-1-yl)methyl)phenyl)acrylamide], the IC50 in experiment [1] (ATP at KM, WT) fell in the range of 501 to 999 nM. Moreover, the “ERK1 Mass Mod (%)” value in experiment [2] is “E (a mass modification of ≧70%)”. For the same compound, in experiment [3], the EC50 is 501 to 999 nM.
In the case of `C=CC(=O)Nc1cc(C)ccc1Nc1nc(Nc2nc(OC)ncc2C#N)ncc1C(F)(F)F` [Compound I-346, N-(2-((2-((5-cyano-2-methoxypyrimidin-4-yl)amino)-5-(trifluoromethyl)pyrimidin-4-yl)amino)-5-methylphenyl)acrylamide], the IC50 in experiment [1] (ATP at KM, WT) lay in the range of 501 to 999 nM. Also, the “ERK1 Mass Mod (%)” value in experiment [2] is “E (a mass modification of ≧70%)”. Further, the EC50 in experiment [3] was in the range of 101 to 500 nM.
As for `C=CC(=O)Nc1ccc(OCC(N)=O)cc1Nc1nc(NC2CCOCC2)ncc1C(F)(F)F` [Compound I-395, N-(4-(2-amino-2-oxoethoxy)-2-((2-((tetrahydro-2H-pyran-4-yl)amino)-5-(trifluoromethyl)pyrimidin-4-yl)amino)phenyl)acrylamide], in experiment [1] (ATP at KM, WT), the IC50 is > 1000 nM. Further, the “ERK1 Mass Mod (%)” value in experiment [2] is “E (a mass modification of ≧70%)”. Also, the EC50 in experiment [3] is > 1000 nM.
Turning to `C=CC(=O)Nc1cc(CN2CCN(C(=O)CO)CC2)ccc1Nc1nc(Nc2cc(OC)ncc2C)ncc1C(F)(F)F` [Compound I-385, N-(5-((4-(2-hydroxyacetyl)piperazin-1-yl)methyl)-2-((2-((2-methoxy-5-methylpyridin-4-yl)amino)-5-(trifluoromethyl)pyrimidin-4-yl)amino)phenyl)acrylamide], in experiment [1] (ATP at KM, WT), the IC50 was < 100 nM. In addition, the “ERK1 Mass Mod (%)” value in experiment [2] is reported as “E (a mass modification of ≧70%)”. For the same compound, in experiment [3], the EC50 was < 100 nM.
Consider `C=CC(=O)Nc1cc(C)ccc1Nc1nc(Nc2cc(NCCOC)nc(OC)c2)ncc1C(F)(F)F` [Compound I-294, N-(2-((2-((2-methoxy-6-((2-methoxyethyl)amino)pyridin-4-yl)amino)-5-(trifluoromethyl)pyrimidin-4-yl)amino)-5-methylphenyl)acrylamide], for which the IC50 in experiment [1] (setting [4]) fell in the range of 101 to 500 nM. In experiment [2], the “ERK1 Mass Mod (%)” value is listed as “E (a mass modification of ≧70%)”. For the same compound, the EC50 in experiment [3] was < 100 nM.
Regarding `C=CC(=O)Nc1cc(C)ccc1Nc1nc(Nc2cc(-c3c[nH]cn3)ccc2C)ncc1C(F)(F)F` [Compound I-378, N-(2-((2-((5-(1H-imidazol-4-yl)-2-methylphenyl)amino)-5-(trifluoromethyl)pyrimidin-4-yl)amino)-5-methylphenyl)acrylamide], in experiment [1] (ATP at KM, WT), the IC50 was 501 to 999 nM. Also, the “ERK1 Mass Mod (%)” value in experiment [2] is given as “E (a mass modification of ≧70%)”. The EC50 in experiment [3] was > 1000 nM.
On to `C=CC(=O)Nc1cc(C)ccc1Nc1nc(NC2CCC(=O)NC2)ncc1C(F)(F)F` (racemic) [Compound I-368, Rac-N-(5-methyl-2-((2-((6-oxopiperidin-3-yl)amino)-5-(trifluoromethyl)pyrimidin-4-yl)amino)phenyl)acrylamide], for which, in experiment [1] (ATP at KM, WT), the IC50 lay in the range of 101 to 500 nM. Further, the “ERK1 Mass Mod (%)” value in experiment [2] is listed as “E (a mass modification of ≧70%)”. Besides, in experiment [3], the EC50 lay within 101 to 500 nM.
Turning to `C=CC(=O)Nc1cc(C)c(F)cc1Nc1nc(Nc2nc(OC)ncc2Cl)ncc1C(F)(F)F` [Compound I-374, N-(2-((2-((5-chloro-2-methoxypyrimidin-4-yl)amino)-5-(trifluoromethyl)pyrimidin-4-yl)amino)-4-fluoro-5-methylphenyl)acrylamide], in experiment [1] (ATP at KM, WT), the IC50 was < 100 nM. For the same compound, the “ERK1 Mass Mod (%)” value in experiment [2] was “E (a mass modification of ≧70%)”. The EC50 in experiment [3] is < 100 nM.
Turning to `C=CC(=O)Nc1cc(C)ccc1Nc1nc(Nc2nc(OC)ncc2C)ncc1C(F)(F)F` [Compound I-347, N-(2-((2-((2-methoxy-5-methylpyrimidin-4-yl)amino)-5-(trifluoromethyl)pyrimidin-4-yl)amino)-5-methylphenyl)acrylamide], the IC50 in experiment [1] (ATP at KM, WT) was < 100 nM. In addition, in experiment [2], the “ERK1 Mass Mod (%)” value was “E (a mass modification of ≧70%)”. Besides, in experiment [3], the EC50 was 101 to 500 nM.
Taken in the same sequence, the figures for `C=CC(=O)Nc1cc(CN2CCN(C(=O)c3cccnc3)CC2)ccc1Nc1nc(Nc2cc(OC)ncc2C)ncc1C(F)(F)F` [Compound I-389, N-(2-((2-((2-methoxy-5-methylpyridin-4-yl)amino)-5-(trifluoromethyl)pyrimidin-4-yl)amino)-5-((4-nicotinoylpiperazin-1-yl)methyl)phenyl)acrylamide] were < 100 nM, “E (a mass modification of ≧70%)” and < 100 nM.
In the case of `C=CC(=O)Nc1cc(CN2CCN(C(C)=O)CC2)ccc1Nc1nc(Nc2nc(OC)ncc2C)ncc1C(F)(F)F` [Compound I-382, N-(5-((4-acetylpiperazin-1-yl)methyl)-2-((2-((2-methoxy-5-methylpyrimidin-4-yl)amino)-5-(trifluoromethyl)pyrimidin-4-yl)amino)phenyl)acrylamide], the IC50 in experiment [1] (ATP at KM, WT) is 101 to 500 nM. Further, the “ERK1 Mass Mod (%)” value in experiment [2] is “E (a mass modification of ≧70%)”. In addition, the EC50 in experiment [3] was 501 to 999 nM.
Consider `C=CC(=O)Nc1cc(C)ccc1Nc1nc(Nc2cc(OC)ncc2Cl)ncc1C(F)(F)F` [Compound I-351, N-(2-((2-((5-chloro-2-methoxypyridin-4-yl)amino)-5-(trifluoromethyl)pyrimidin-4-yl)amino)-5-methylphenyl)acrylamide], for which the IC50 in experiment [1] (ATP at KM, WT) is 101 to 500 nM. Further, the “ERK1 Mass Mod (%)” value in experiment [2] is given as “F (a mass modification of 31-69%)”. In experiment [3], the EC50 is 501 to 999 nM.
For `C=CC(=O)Nc1cc(C)ccc1Nc1nc(Nc2cc(OC(C)C)ncc2C)ncc1C(F)(F)F` [Compound I-369, N-(2-((2-((2-isopropoxy-5-methylpyridin-4-yl)amino)-5-(trifluoromethyl)pyrimidin-4-yl)amino)-5-methylphenyl)acrylamide], the IC50 in experiment [1] (ATP at KM, WT) was > 1000 nM. Also, the “ERK1 Mass Mod (%)” value in experiment [2] is “F (a mass modification of 31-69%)”. Also, the EC50 in experiment [3] is > 1000 nM.
Take `C=CC(=O)Nc1cc(CN2CCN(C(=O)CO)CC2)ccc1Nc1nc(Nc2nc(OC)ncc2C)ncc1C(F)(F)F` [Compound I-386, N-(5-((4-(2-hydroxyacetyl)piperazin-1-yl)methyl)-2-((2-((2-methoxy-5-methylpyrimidin-4-yl)amino)-5-(trifluoromethyl)pyrimidin-4-yl)amino)phenyl)acrylamide]: the IC50 in experiment [1] (ATP at KM, WT) fell in the range of 501 to 999 nM. In experiment [2], the “ERK1 Mass Mod (%)” value is “E (a mass modification of ≧70%)”. The EC50 in experiment [3] was 501 to 999 nM.
On to `C=CC(=O)Nc1cc(C)ccc1Nc1nc(Nc2cnc(OC)cc2C)ncc1C(F)(F)F` [Compound I-350, N-(2-((2-((6-methoxy-4-methylpyridin-3-yl)amino)-5-(trifluoromethyl)pyrimidin-4-yl)amino)-5-methylphenyl)acrylamide], for which the IC50 in experiment [1] (ATP at KM, WT) was in the range of 501 to 999 nM. Further, in experiment [2], the “ERK1 Mass Mod (%)” value is given as “F (a mass modification of 31-69%)”. The EC50 in experiment [3] is > 1000 nM.
In the case of `C=CC(=O)Nc1cc(C(=O)N2CCN(S(C)(=O)=O)CC2)ccc1Nc1nc(Nc2cc(OC)ncc2C)ncc1C(F)(F)F` [Compound I-401, N-(2-((2-((2-methoxy-5-methylpyridin-4-yl)amino)-5-(trifluoromethyl)pyrimidin-4-yl)amino)-5-(4-(methylsulfonyl)piperazine-1-carbonyl)phenyl)acrylamide], the IC50 in experiment [1] (ATP at KM, WT) was in the range of 101 to 500 nM. For the same compound, the “ERK1 Mass Mod (%)” value in experiment [2] is on record as “E (a mass modification of ≧70%)”. Moreover, in experiment [3], the EC50 lay in the range of 101 to 500 nM.
In the case of `C=CC(=O)Nc1cc(C)ccc1Nc1nc(Nc2nc(OC)ncc2C(F)(F)F)ncc1C(F)(F)F` [Compound I-355, N-(2-((2-((2-methoxy-5-(trifluoromethyl)pyrimidin-4-yl)amino)-5-(trifluoromethyl)pyrimidin-4-yl)amino)-5-methylphenyl)acrylamide], the IC50 in experiment [1] (ATP at KM, WT) was in the range of 101 to 500 nM. The “ERK1 Mass Mod (%)” value in experiment [2] is given as “E (a mass modification of ≧70%)”. In experiment [3], the EC50 fell in the range of 101 to 500 nM.
